“Also recorded” adds a separate entry of the source. Like-named read-outs stand apart in the source and are kept apart here.
Experiments:
[1] = tested on: L. amazonensis axenic amastigotes; experiment: alamarBlue viability / concentration-response assay, axenic amastigotes; format: cell-based, Leishmania amazonensis
Description: (§1) Leishmania amazonensis axenic amastigotes (100 μL, 2×10^6 cells/mL) were added to 96-multiwell plates containing 100 μL of amastigote culture medium with an appropriate compound dilution series. 0.1% DMSO (no drug) served as a positive control (100%), and 5 μM amphotericin B served as a negative growth control (0%). Only internal wells were used to minimize edge effects from evaporation. Axenic amastigotes were incubated at 32° C. with a compound/drug for 72 h prior to measurement. Similarly, the cytotoxicity of each compound was determined against RAW 264.7 cells and HepG2 cell lines, following 72 h incubation at 37° C. (promastigotes at 26° C.).
(§2) 10% alamarBlue® (Thermo Fisher Scientific) was used to measure the growth of both parasite and mammalian cells. Conversion from a blue oxidized state to a pink reduced state was assessed visually at 6 hr. The fluorescence signal was measured with a BioTek Synergy H1 plate reader (530 nm excitation, 570 nm emission). For bioluminescence assays using L. amazonensisluc, relative luminescence units (RLU) were measured using Britelite Plus (PerkinElmer, USA). Luminescence produced by this luciferase reaction is proportional to the amount of luciferase-expressing, viable L. amazonensisluc. Following five-minute incubation at room temperature, the luminescence was measured with a BioTek Synergy H1 plate reader.
All experiments were conducted as three technical triplicates on the same plate, with at least three independent biological repeats of each plate performed. For all assays, percent growth was expressed as a proportion of the untreated (positive) control (i.e. 100%) and plotted against drug/compound concentration. The concentration was then log10 transformed and EC50 values were determined using nonlinear regression (sigmoidal dose-response/variable slope equation) in GraphPad Prism v5.0 (GraphPad Software, Inc., San Diego, CA).
To identify antileishmanial compounds, a microplate-based alamarBlue® assay was used to quickly triage the 400 drug-like compounds available in the MMV Pathogen Box collection. […] A three-step process was used to screen the Pathogen Box: 1) identify hits against axenic amastigotes, 2) confirm the inhibitory concentrations of these hits against axenic amastigotes, 3) evaluate hits for potency against intracellular parasites using fluorescence and bioluminescence-based intracellular assays. The MMV Pathogen Box resource was tested at two concentrations (5 μM and 1 μM, 72 h endpoint) on axenic amastigotes.
Hits were defined as compounds that, at a concentration of 1 μM, decreased the relative fluorescence intensity signal to ≤70% of that produced by parasites incubated in vehicle (0.06% DMSO) only (FIG. 9).

[2] = tested on: intracellular L. amazonensis amastigotes; experiment: Intramacrophage bioluminescence assay with luciferase-expressing L. amazonensis; format: cell-based, Leishmania amazonensis
Description: Intracellular EC50s were estimated with L. amazonensisluc parasites. Briefly, RAW 264.7 cells or BM primary Mϕs were starved overnight, then infected with metacyclic promastigotes at a Multiplicity of Infection (MOI) of 15 and incubated for another 24 h at 37° C. The plates containing infected RAW 264.7 cells/BM primary M4s were washed five times with serum-free DMEM. Serially diluted compounds were added, and plates were incubated at 37° C. for 72 hrs. Bioluminescence signal was measured as described above.
RAW 264.7 cells were used to perform a bioluminescence assay with transgenic luciferase-expressing L. amazonensis (FIG. 1C).

[3] = tested on: intracellular L. amazonensis amastigotes; experiment: Intracellular washout assay (LD50); format: cell-based, Leishmania amazonensis
Description: Intracellular LD50s were measured. Briefly, RAW 264.7 cells were seeded to 96-multiwell plates at a density of 2×10^5 cells/mL (200 μL) and starved overnight at 37° C. The cells were infected with metacyclic promastigotes at a Multiplicity of Infection (MOI) of 15 and incubated for another 24 h at 37° C. The plates containing infected RAW 264.7 cells/BM primary M #s were washed five times with serum-free DMEM. Serially diluted compounds were added, and plates were incubated at 37° C. for 72 hrs. Wells were washed five times with DMEM, and the RAW 264.7 cells were lysed with 100 μL of 2 mg/mL saponin in DMEM for 5 min at room temperature, and further lysis was stopped with 100% FBS. After centrifugation, 200 μL acidic promastigotes media was replaced, plates were incubated at 26° C. for 96 h. Fluorescence intensity (alamarBlue®) was measured as described above.
All routine in vitro quantification of antileishmanial drug potency is quantification of “cytostatic” potency. […] Therefore, the cytocidal action of MMV676477 was quantified by obtaining an LD50 at 72 h (a Lethal Dose that kills 50% of the bulk population of the parasites relative to untreated control) and compared it to the known cytocidal drug amphotericin. An intracellular washout assay was employed. […] The ratio of LD50:EC50 was calculated for MMV676477 and amphotericin. Lower ratios indicate that the LD50 is similar to the EC50 value, meaning that the estimated EC50 values represent killing of the parasites rather than simple growth inhibition.

[4] = target: purified L. tarentolae tubulin (Leishmania tarentolae, UniProt A0A640KCM0+A0A640KQN0); experiment: Chemical cross-linking competition with SW223022 probe; format: binding; conditions: 100-fold excess of competitor
[5] = tested on: L. amazonensis promastigotes and amastigotes; experiment: Microscopic analysis of cell division; format: cell-based, Leishmania amazonensis; conditions: 48 h at EC50^72 h
Description: (§3) Promastigotes or amastigotes were treated with the indicated compound concentrations and allowed to adhere to poly-L-lysine coated plates. All cells were fixed with 4% paraformaldehyde and permeabilized/blocked with 0.01% Triton X-100 and 2% BSA in PBS. Promastigotes and amastigotes were incubated with mouse anti-gp46 or anti-p8, respectively at 1:50 or 1:1000 and rat anti-alpha-tubulin antibody at 1:1000. Samples were then probed with A568 anti-mouse and […] secondary antibodies (Molecular Probes). DNA was labeled with Hoescht. Samples were visualized on a Zeiss LSM 880 Inverted confocal Airyscan microscope at 63×; full Z-thicknesses through parasites were obtained. […] For microscopic analysis of mitotic arrest, at least 200 parasites were analyzed per condition per experiment after 48 hrs incubation at compounds' EC50, and the average plus standard error for three experiments was calculated. Representative images were selected from the maximal intensity projections and linearly processed in Adobe Photoshop CS6.
The molecular target of MMV676477 was investigated.

[6] = tested on: L. amazonensis promastigotes and amastigotes; experiment: Tubulin intensity by confocal immunofluorescence microscopy; format: cell-based, Leishmania amazonensis; conditions: 24 h at EC50^72 h
Description: as §3
One reason why MMV676477 might affect parasite cell division is that, like paclitaxel, it might affect microtubule polymerization, either directly or indirectly. The degree to which MMV676477 affected microtubules polymerization in cells was examined. […] Centrifugation of these extracts allowed separation of insoluble polymeric (pellet) and soluble dimeric (supernatant) tubulin. […] The intensity of α-tubulin staining was examined by normalizing it to the intensity of a membrane protein (gp46 for promastigotes in FIG. 4D; p8 for amastigotes in FIG. 4E).

Cytotoxicity, alamarBlue = format: cell-based; conditions: mouse, RAW 264.7 macrophage cells, read-out: CC50^72 h cytotoxicity (macrophage / mammalian cells)
Description: as §1
as §2, with “reader. […]” for “reader.”

[7] = tested on: blood-stage P. falciparum (3D7 strain); experiment: Malaria SYBR green I fluorescence (MSF) assay; format: cell-based, Plasmodium falciparum; conditions: 3D7 strain
Description: For other parasites, L. donovani, strain MHOM/SD/62/1S-C12D, was grown as previously described. Plasmodium falciparum parasites of the 3D7 strain were cultured in RPMI 1640 medium supplemented with 37.5 mM HEPES, 10 mM D-glucose, 2 mM L-glutamine, 100 μM hypoxanthine, 25 μg/mL gentamicin, 4% (v/v) human serum and 0.25% (v/v) Albumax II, at a 2% haematocrit in an atmosphere of 1% 02, 3% CO2 and 96% N2. Staging and parasitemia of the in vitro culture were assessed by light microscopy of Giemsa-stained thin blood smears.
Compounds were tested against the blood-stage Trypanosoma brucei (48 hr endpoint) and intra-erythrocytic asexual stages Plasmodium falciparum (3D7) using CellTiter-Glo® luminescent and Malaria SYBR green I fluorescence (MSF) assays, respectively. Similar methodology will be used for future experiments.
MMV676477 was tested against several other parasites: the axenic amastigotes of Leishmania donovani and Leishmania tarentolae, blood-stage Plasmodium falciparum, and Trypanosoma brucei. The compound's activity was measured using alamarBlue®, Malaria SYBR green I fluorescence (MSF) and CellTiter-Glo® luminescent assays. […] In addition, MMV676477 has also been recently reported as having potent activity against Neospora caninum, Cryptosporidium parvum, Toxoplasma gondii, and Entamoeba histolytica.

[8] = Leishmania amazonensis, 72 h, axenic amastigotes; read-out: EC50^72 h against L. amazonensis axenic amastigotes
[9] = Pathogen Box screen, 1 μM, 72 h

C#CCOc1ccc(C(=O)c2ccc(C(=O)Nc3cc(C)nn3-c3nc(C)c(CC)c(=O)[nH]3)cc2)cc1 [SW223022, N-(1-(5-Ethyl-4-methyl-6-oxo-1,6-dihydropyrimidin-2-yl)-3-methyl-1H-pyrazol-5-yl)-4-(4-(prop-2-yn-1-yloxy)benzoyl)benzamide]
EC50 ([1]; 72 h, axenic amastigotes; read-out: EC50^72 h against L. amazonensis axenic amastigotes): 156 nM
EC50 [1, 8]: 160 nM

C[C@@H]1[C@H](O)[C@@H](C)/C=C/C=C/C=C/C=C/C=C/C=C/C=C/[C@H](O[C@@H]2O[C@H](C)[C@@H](O)[C@H](N)[C@@H]2O)C[C@@H]2O[C@](O)(C[C@@H](O)C[C@@H](O)[C@H](O)CC[C@@H](O)C[C@@H](O)CC(=O)O[C@H]1C)C[C@H](O)[C@H]2C(=O)O [amphotericin B]
EC50 ([1]; Leishmania amazonensis; 72 h, axenic amastigotes; read-out: EC50^72 h against L. amazonensis axenic amastigotes): 53 nM
EC50 ([2]; Leishmania amazonensis, RAW264.7, 72 h, read-out: EC50^72 h against intracellular L. amazonensis amastigotes): 77 nM
LD50/EC50 ratio ([3]; intracellular amastigotes): 1
LD50 72 h ([3]; intracellular washout, 72 h): 82 nM

CC(=O)OC[C@H]1O[C@@H]([S-])[C@H](OC(C)=O)[C@@H](OC(C)=O)[C@@H]1OC(C)=O.CCP(CC)CC.[Au+] [auranofin]
relative fluorescence intensity signal vs vehicle (hit definition) [1, 9]: hits

CCc1c(C)nc(-n2nc(C)cc2NC(C)=O)[nH]c1=O [SW223023, N-(1-(5-Ethyl-4-methyl-6-oxo-1,6-dihydropyrimidin-2-yl)-3-methyl-1H-pyrazol-5-yl) acetamide]
competition with SW223022 probe (fluorescent tubulin band) [4]: No apparent competition

CSc1ccccc1C(=O)Oc1cc(C)nc(-n2nc(C)cc2N)n1 [SW10]
competition with SW223022 probe (fluorescent tubulin band) [4]: No apparent competition

CC(C)(C)[C@H]1CC[C@H](CC2=C(O)C(=O)c3ccccc3C2=O)CC1 [buparvaquone]
relative fluorescence intensity signal vs vehicle (hit definition) [1, 9]: hits

C[C@]1(COc2ccc(N3CCC(Oc4ccc(OC(F)(F)F)cc4)CC3)cc2)Cn2cc([N+](=O)[O-])nc2O1 [delamanid]
relative fluorescence intensity signal vs vehicle (hit definition) [1, 9]: hits

CCCCCCCCCCCCCCCCOP(=O)([O-])OCC[N+](C)(C)C [miltefosine]
percentage of L. amazonensis undergoing cell division [5]: did not affect L. amazonensis cell division
tubulin intensity over control (DMSO-treated) [6]: did not increase tubulin intensity

CCc1c(C)nc(-n2nc(C)cc2NC(=O)c2ccc(F)c(Cl)c2)[nH]c1=O [SW223041, 3-Chloro-N-(1-(5-ethyl-4-methyl-6-oxo-1,6-dihydropyrimidin-2-yl)-3-methyl-1H-pyrazol-5-yl)-4-fluorobenzamide]
EC50 [1, 8]: 20 nM
improvement of potency against L. amazonensis compared to MMV676477 ([1]; fold vs MMV676477): four to five-fold improved potency; also recorded: about four-fold improved activity
CC50 at 72 h (Cytotoxicity, alamarBlue): 2400 nM
potency against L. amazonensis intracellular amastigotes relative to MMV676477 [2]: 3-4 fold
competition with SW223022 probe (fluorescent tubulin band) [4]: almost completely absent
potency against blood-stage P. falciparum relative to MMV676477 [7]: 3-4 fold

CC(=O)Oc1ccccc1C(=O)Nc1ncc([N+](=O)[O-])s1 [nitazoxanide]
relative fluorescence intensity signal vs vehicle (hit definition) [1, 9]: hits

CCc1c(C)nc(-n2nc(C)cc2N)[nH]c1=O [SW223075, 2-(5-amino-3-methyl-1H-pyrazol-1-yl)-5-ethyl-6-methylpyrimidin-4(3H)-one]
EC50 [1, 8]: 290 nM
percentage of L. amazonensis undergoing cell division [5]: no effect on cell division
tubulin intensity over control (DMSO-treated) [6]: did not increase tubulin intensity

CCc1c(C)nc(-n2nc(C)cc2NC(=O)Nc2ccc(OC)cc2)[nH]c1=O [SW223102, 1-(1-(5-Ethyl-4-methyl-6-oxo-1,6-dihydropyrimidin-2-yl)-3-methyl-1H-pyrazol-5-yl)-3-(4-methoxyphenyl)urea]
EC50 [1, 8]: 2400 nM
competition with SW223022 probe (fluorescent tubulin band) [4]: less-pronounced dimming

Source: US20240139190A1, “NOVEL ANTIPARASITIC COMPOUNDS AND METHODS” (The Board of Regents of The University of Texas System, priority 2019, published 2024)
